Laboratory results: patent publication US5707966A, “Antithrombotic agents” (Eli Lilly and Company, priority 1995, dated 1998)
Counter-ions that a name gives are not always drawn. Like-named read-outs stand apart in the source and are kept apart here.

Columns and labels:
Format in all cases: biochemical
factor Xa = biological target: T1, factor Xa (Homo sapiens, UniProt P00742); assay: Kass with factor Xa, chromogenic substrate; conditions: substrate N-Benzoyl-Ile-Glu-Gly-Arg-p-nitroanilide
T1 construct: Human factors X, Xa, IXa, XIa, and XIIa are purchased; purchased Enzyme Research Laboratories, South Bend, Ind
Method: (§1) By substantially following the procedures described above for human thrombin, and using other human blood coagulation system serine proteases and proteases of the fibrinolytic system with the appropriate chromogenic substrates, identified below, selectivity of the compounds of the present invention with respect to the coagulation factor serine proteases and with respect to the fibrinolytic system serine proteases are evaluated as well as their substantial lack of interference with serine proteases of the fibrinolytic system. Thrombin inhibitors preferably should spare fibrinolysis induced by urokinase, tissue plasminogen activator (t-PA) and streptokinase. This would be important to the therapeutic use of such agents as an adjunct to streptokinase, t-PA or urokinase thrombolytic therapy and to the use of such agents as an endogenous fibrinolysis-sparing (with respect to t-PA and urokinase) antithrombotic agent. In addition to the lack of interference with the amidase activity of the fibrinolytic proteases, such fibrinolytic system sparing can be studied by the use of human plasma clots and their lysis by the respective fibrinolytic plasminogen activators.
(§2) Human factors X, Xa, IXa, XIa, and XIIa are purchased from Enzyme Research Laboratories, South Bend, Ind.; human urokinase from Leo Pharmaceuticals, Denmark; and recombinant activated Protein C (aPC) is prepared at Eli Lilly and Co. substantially according to U.S. Patent No. 4,981,952. Chromogenic substrates: N-Benzoyl-Ile-Glu-Gly-Arg-p-nitroanilide (for factor Xa); N-Cbz-D-Arg-Gly-Arg-p-nitroanilide (for factor IXa assay as the factor Xa substrate); Pyroglutamyl-Pro-Arg-p-nitroanilide (for Factor XIa and for aPC); H-D-Pro-Phe-Arg-p-nitroanilide (for factor XIIa); and Pyroglutamyl-Gly-Arg-p-nitroanilide (for urokinase); are purchased from KabiVitrum, Stockholm, Sweden, or from Midwest Biotech, Fishers, Ind. Bovine trypsin is purchased from Worthington Biochemicals, Freehold, N.J., and human plasma kallikrein from Kabi Vitrum, Stockholm, Sweden. Chromogenic substrate H-D-Pro-Phe-Arg-p-nitroanilide for plasma kallikrein is purchased from Kabi Vitrum, Stockholm, Sweden. N-Benzoyl-Phe-Val-Arg-p-nitroanilide, the substrate for human thrombin and for trypsin, is synthesized according to procedures described above for the compounds of the present invention, using known methods of peptide coupling from commercially available reactants or purchased from Midwest Biotech, Fishers, Ind.

Bovine trypsin = biological target: T2, Bovine trypsin (Bos taurus, UniProt P00760); assay: Kass with trypsin, chromogenic substrate; conditions: substrate N-Benzoyl-Phe-Val-Arg-p-nitroanilide
T2 construct: Bovine trypsin is purchased; purchased Worthington Biochemicals, Freehold, N.J
T2 sequence (P00760 24-246): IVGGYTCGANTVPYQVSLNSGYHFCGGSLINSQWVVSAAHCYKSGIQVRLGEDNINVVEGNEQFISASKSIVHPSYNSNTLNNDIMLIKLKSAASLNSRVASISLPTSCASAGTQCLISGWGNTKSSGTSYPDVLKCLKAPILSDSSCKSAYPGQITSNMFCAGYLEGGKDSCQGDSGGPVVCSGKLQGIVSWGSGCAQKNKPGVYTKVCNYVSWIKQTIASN
Method: as §1, §2

Human plasma [1] = assay: Human plasma anticoagulation, prothrombin time (PT); conditions: concentration required to double the PT, linear extrapolation
Method: (§3) Dog plasma and rat plasma is obtained from conscious mixed-breed hounds (either sex, Hazelton-LRE, Kalamazoo, Mich., U.S.A.) or from anesthetized male Sprague-Dawley rats (Harlan Sprague-Dawley, Inc., Indianapolis, Ind., U.S.A.) by venipuncture into 3.8 percent citrate. Fibrinogen is prepared from in-date ACD human blood as the fraction I-2 according to previous procedures and specifications. […] Human fibrinogen is also purchased as 98 percent pure/plasmin free from American Diagnostica, Greenwich, Conn. Coagulation reagents ACTIN, Thromboplastin, and Human plasma are from Baxter Healthcare Corp., Dade Division, Miami, Fla. Bovine thrombin from Parke-Davis ([…], Mich.) is used for coagulation assays in plasma.
(§4) Coagulation assay procedures are as previously described. […] A CoAScreener coagulation instrument (American LABor, Inc.) is used for all coagulation assay measurements. The prothrombin time (PT) is measured by adding 0.05 mL saline and 0.05 mL Thromboplastin-C reagent to 0.05 mL test plasma. The activated partial thromboplastin time (APTT) is measured by incubation of 0.05 mL test plasma with 0.05 mL Actin reagent for 120 seconds followed by 0.05 mL CaCl2 (0.02M). The thrombin time (TT) is measured by adding 0.05 mL saline and 0.05 mL thrombin (10 NIH units/mL) to 0.05 mL test plasma. The compounds of Formula I are added to human or animal plasma over a wide range of concentrations to determine prolongation effects on the APTT, PT, and TT assays. Linear extrapolations are performed to estimate the concentrations required to double the clotting time for each assay.

Human Thrombin = Human Thrombin (Homo sapiens, UniProt P00734); assay: Inhibition of amidase activity of thrombin (Kass)
Human plasma [2] = assay: Human plasma anticoagulation, activated partial thromboplastin time (APTT); conditions: concentration required to double the APTT, linear extrapolation
Method: as §3, §4

Human plasmin = biological target: T3, Human plasmin (Homo sapiens, UniProt P00747); assay: Kass with plasmin, chromogenic substrate; conditions: substrate H-D-Val-Leu-Lys-p-nitroanilide
T3 construct: Human plasmin is purchased; purchased Boehringer Mannheim, Indianapolis, Ind
Method: as §1
Human plasmin is purchased from Boehringer Mannheim, Indianapolis, Ind.; nt-PA is purchased as single chain activity reference from American Diagnostica, Greenwich, Conn. modified-t-PA6 (mt-PA6) is prepared at Eli Lilly and Company by procedure known in the art (See, Burck, et al., J. Biol. Chem., 265, […] (1990). Plasmin chromogenic substrate H-D-Val-Leu-Lys-p-nitroanilide and tissue plasminogen activator (t-PA) substrate H-D-Ile-Pro-Arg-p-nitroanilide are purchased from Kabi Vitrum, Stockholm, Sweden.

Human plasma [3] = assay: Human plasma anticoagulation, thrombin time (TT); conditions: concentration required to double the thrombin time, linear extrapolation
Method: as §3, §4

[4] = mean over a range of concentrations, […]

T1 sequence (P00742 235-488 limits assumed): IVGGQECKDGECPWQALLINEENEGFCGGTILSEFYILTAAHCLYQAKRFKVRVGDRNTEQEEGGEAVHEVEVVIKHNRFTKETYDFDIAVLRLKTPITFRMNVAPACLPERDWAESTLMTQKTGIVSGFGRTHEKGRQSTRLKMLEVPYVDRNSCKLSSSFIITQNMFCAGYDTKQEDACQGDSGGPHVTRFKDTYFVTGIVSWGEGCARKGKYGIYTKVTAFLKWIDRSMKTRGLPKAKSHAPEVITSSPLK
T1 sequence (P00742 41-179 partner limits assumed): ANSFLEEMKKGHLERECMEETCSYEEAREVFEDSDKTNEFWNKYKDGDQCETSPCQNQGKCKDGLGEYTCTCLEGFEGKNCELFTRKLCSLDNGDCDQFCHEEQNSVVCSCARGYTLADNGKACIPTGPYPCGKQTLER
T3 sequence (P00747 97-810): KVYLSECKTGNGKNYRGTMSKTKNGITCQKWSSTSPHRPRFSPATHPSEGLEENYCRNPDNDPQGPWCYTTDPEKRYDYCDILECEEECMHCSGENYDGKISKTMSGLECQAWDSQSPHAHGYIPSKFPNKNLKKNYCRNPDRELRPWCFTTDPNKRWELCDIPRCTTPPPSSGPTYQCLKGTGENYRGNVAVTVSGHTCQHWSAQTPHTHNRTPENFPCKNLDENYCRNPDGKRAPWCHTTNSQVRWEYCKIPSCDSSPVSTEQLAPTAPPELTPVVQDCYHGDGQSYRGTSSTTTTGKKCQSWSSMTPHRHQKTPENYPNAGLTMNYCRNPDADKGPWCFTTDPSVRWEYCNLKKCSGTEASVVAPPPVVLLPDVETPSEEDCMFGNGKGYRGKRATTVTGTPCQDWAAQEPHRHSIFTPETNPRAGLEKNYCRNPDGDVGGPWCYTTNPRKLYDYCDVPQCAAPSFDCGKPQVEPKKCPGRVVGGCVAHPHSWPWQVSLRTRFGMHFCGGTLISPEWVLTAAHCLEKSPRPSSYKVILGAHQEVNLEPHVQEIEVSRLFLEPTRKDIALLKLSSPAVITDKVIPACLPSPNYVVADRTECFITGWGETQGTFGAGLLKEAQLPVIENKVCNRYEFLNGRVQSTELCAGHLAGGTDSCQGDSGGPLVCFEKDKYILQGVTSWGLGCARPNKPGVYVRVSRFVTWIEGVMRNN
T3 sequence (P00747 97-580 partner limits assumed): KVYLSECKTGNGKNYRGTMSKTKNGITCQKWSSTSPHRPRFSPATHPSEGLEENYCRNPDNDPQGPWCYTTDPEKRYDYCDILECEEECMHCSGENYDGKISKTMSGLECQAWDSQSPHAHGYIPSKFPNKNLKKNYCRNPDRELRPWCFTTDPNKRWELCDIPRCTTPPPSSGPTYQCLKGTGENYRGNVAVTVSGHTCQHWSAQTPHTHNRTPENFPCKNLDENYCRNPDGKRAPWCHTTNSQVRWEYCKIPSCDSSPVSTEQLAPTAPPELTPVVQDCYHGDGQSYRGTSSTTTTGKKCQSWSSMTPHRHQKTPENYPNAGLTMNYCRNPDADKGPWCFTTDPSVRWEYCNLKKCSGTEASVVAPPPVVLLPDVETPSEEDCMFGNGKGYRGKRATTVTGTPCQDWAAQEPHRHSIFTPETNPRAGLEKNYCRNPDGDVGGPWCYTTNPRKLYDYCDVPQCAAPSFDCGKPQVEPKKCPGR

| Kass Xa (factor Xa) | Kass Trypsin (Bovine trypsin) | Kass Plasmin (Human plasmin) | Kass Human Thrombin (Human Thrombin; [4]) | SMILES | Human Plasma Anticoagulation 2× Clotting time PT (Human plasma [1]) | Kass Human Thrombin (Human Thrombin) | Human Plasma Anticoagulation 2× Clotting time APTT (Human plasma [2]) | Human Plasma Anticoagulation 2× Clotting time TT (Human plasma [3]) |
| --- | --- | --- | --- | --- | --- | --- | --- | --- |
| < 0.001 × 10^6 (L/mole) | 0.01 × 10^6 (L/mole) | < 0.001 × 10^6 (L/mole) | 0.43 × 10^6 (L/mole) | N=C(N)c1cccc(CNC(=O)[C@@H]2CCCN2C(=O)[C@@H]2NCC[C@@H]3CCCC[C@@H]32)c1 [Example 25, D-1-Piq-Pro-m-NHCH2 --C6 H4 C(=NH)NH2.HCl] | 40,400 ng/mL |  | 34,600 ng/mL | 1,430 ng/mL |
| < 0.001 × 10^6 (L/mole) | 0.07 × 10^6 (L/mole) | < 0.001 × 10^6 (L/mole) | 1.1 × 10^6 (L/mole) | N=C(N)Nc1ccc(CNC(=O)[C@@H]2CCCN2C(=O)[C@@H]2NCC[C@@H]3CCCC[C@@H]32)cc1 [Example 38, D-1-Piq-Pro-p-NHCH2 C6 H4 NHC(NH)NH2.2HCl] | 11,100 ng/mL |  | 6,100 ng/mL | 540 ng/mL |
| < 0.001 × 10^6 (L/mole) | < 0.02 × 10^6 (L/mole) | < 0.001 × 10^6 (L/mole) | 0.12 × 10^6 (L/mole) | N=C(N)Nc1ccc(CCNC(=O)[C@@H]2CCCN2C(=O)[C@@H]2NCC[C@@H]3CCCC[C@@H]32)cc1 [Example 39, D-1-Piq-Pro-p-NHCH2 CH2 C6 H4 NHC(NH)NH2.2HCl] | 78,600 ng/mL |  | 69,200 ng/mL | 5,300 ng/mL |
| < 0.001 × 10^6 (L/mole) | 0.01 × 10^6 (L/mole) | < 0.001 × 10^6 (L/mole) | 0.03 × 10^6 (L/mole) | N=C(N)Nc1cccc(CNC(=O)[C@@H]2CCCN2C(=O)[C@@H]2NCC[C@@H]3CCCC[C@@H]32)c1 [Example 40, D-1-Piq-Pro-m-NHCH2 C6 H4 NHC(NH)NH2.2HCl] | > 91,000 ng/mL |  | > 91,000 ng/mL | 35,100 ng/mL |
| < 0.001 × 10^6 (L/mole) | < 0.001 × 10^6 (L/mole) | < 0.001 × 10^6 (L/mole) | 0.01 × 10^6 (L/mole) | N=C(N)Nc1cccc(CCNC(=O)[C@@H]2CCCN2C(=O)[C@@H]2NCC[C@@H]3CCCC[C@@H]32)c1 [Example 41, D-1-Piq-Pro-m-NHCH2 CH2 C6 H4 NHC(NH)NH2.2HCl] | > 91,000 ng/mL |  | > 91,000 ng/mL | 82,200 ng/mL |

The remaining lines, values behind:

| SMILES | Kass Xa (factor Xa) | Kass Trypsin (Bovine trypsin) | Kass Plasmin (Human plasmin) | Kass Human Thrombin (Human Thrombin; [4]) | Human Plasma Anticoagulation 2× Clotting time PT (Human plasma [1]) | Kass Human Thrombin (Human Thrombin) | Human Plasma Anticoagulation 2× Clotting time APTT (Human plasma [2]) | Human Plasma Anticoagulation 2× Clotting time TT (Human plasma [3]) |
| --- | --- | --- | --- | --- | --- | --- | --- | --- |
| N=C(N)c1ccc(CNC(=O)[C@@H]2C[C@@H]3CCCC[C@@H]3N2C(=O)[C@@H]2NCC[C@@H]3CCCC[C@@H]32)cc1 (relative stereo) [Example 42, D-1-Piq-cis-Ohi-p-NHCH2 C6 H4 C(NH)NH2.2HCl] | 0.07 × 10^6 (L/mole) | 43 × 10^6 (L/mole) | 0.12 × 10^6 (L/mole) |  | 320 ng/mL | 38 | 270 ng/mL | 20 ng/mL |
| N=C(N)c1ccc(CNC(=O)[C@@H]2C[C@@H]3CCCC[C@@H]3N2C(=O)[C@H]2C[C@H]3CCCC[C@H]3CN2)cc1 (relative stereo) [Example 43, D-3-Piq-cis-Ohi-p-NHCH2 C6 H4 C(NH)NH2.2HCl] | 0.05 × 10^6 (L/mole) | 100 × 10^6 (L/mole) | 0.30 × 10^6 (L/mole) | 1.4 × 10^6 (L/mole) | 930 ng/mL |  | 1,100 ng/mL | 280 ng/mL |
| N=C(N)c1ccc(CNC(=O)[C@@H]2C[C@@H]3CCCC[C@@H]3N2C(=O)[C@@H](Cc2ccccc2)NCC(=O)O)cc1 (relative stereo) [Example 47, HOOCCH2 -D-Phe-cis-Ohi-p-NHCH2 C6 H4 C(NH)NH2.HCl] | 0.04 × 10^6 (L/mole) | 82 × 10^6 (L/mole) | 0.18 × 10^6 (L/mole) |  | 270 ng/mL | 45 | 140 ng/mL | 12 ng/mL |
| CCS(=O)(=O)N[C@H](Cc1ccccc1)C(=O)N1CCC[C@H]1C(=O)NCCc1ccc(C(=N)N)cc1 [Example 26, EtSO2 -D-Phe-Pro-p-NHCH2 CH2 --C6 H4 C(=NH)NH2.HCl] | 0.01 × 10^6 (L/mole) | 0.21 × 10^6 (L/mole) | 0.01 × 10^6 (L/mole) | 13 × 10^6 (L/mole) | 750 ng/mL |  | 870 ng/mL | 37 ng/mL |
| N=C(N)c1ccc(CCCNC(=O)[C@@H]2CCCN2C(=O)[C@@H]2NCC[C@@H]3CCCC[C@@H]32)cc1 [Example 32, 1-Piq-Pro-p-NHCH2 CH2 CH2 --C6 H4 C(=NH)NH2.HCl] | 0.03 × 10^6 (L/mole) | 0.04 × 10^6 (L/mole) | < 0.001 × 10^6 (L/mole) | 0.13 × 10^6 (L/mole) | 47,800 ng/mL |  | 28,500 ng/mL | 3,100 ng/mL |
| CCS(=O)(=O)N[C@H](Cc1ccccc1)C(=O)N1CCC[C@H]1C(=O)NCc1ccc(NC(=N)N)cc1 [Example 34, EtSO2 -D-Phe-Pro-p-NHCH2 C6 H4 NHC(NH)NH2.HCl] | < 0.001 × 10^6 (L/mole) | 0.49 × 10^6 (L/mole) | 0.01 × 10^6 (L/mole) | 0.65 × 10^6 (L/mole) | 5,500 ng/mL |  | 4,900 ng/mL | 530 ng/mL |
